Test results published in US7498336B2, “Deazaflavin compounds and methods of use thereof” (The United States of America as represented by the …, priority 2003, dated 2009).
“Also recorded” adds a separate entry of the source.

Key:
[1] = target: T1, p53 pre-bound to GST-MDM2 (Homo sapiens, UniProt Q00987); test: In vitro p53 ubiquitination assay; format: biochemical; details: cellular p53 pre-bound to GST-MDM2, FIG. 2G
T1 construct: made in house; host or cells: GST-MDM2: bacteria; p53: SaOS-p53 inducible cells
Method: d. In Vitro R53 Ubiguitination Assay
p53 protein from SaOS-p53 inducible cell lysate was purified from cells using GST-MDM2 (5 pmol) pre-bound to GS beads. Samples were then incubated with test compounds as above. Subsequently 2 μl rabbit E1, 1 μl UbcH5b, and 10 μg of ubiquitin were added. After reaction for 15 min at 23° C., samples were subject to SDS-PAGE under reducing conditions, transferred to nitrocellulose membranes and immunoblotted with anti-p53 (DO-1) followed by ECL using standard techniques.

Nedd4 = target: T2, Nedd4 (Homo sapiens, UniProt P46934); test: In vitro ubiquitination assay (E1+E2+E3) with unrelated E3 ligase; format: biochemical; details: gel assay, FIG. 2B, 2C
T2 construct: made in house
T2 sequence (P46934 1-1319): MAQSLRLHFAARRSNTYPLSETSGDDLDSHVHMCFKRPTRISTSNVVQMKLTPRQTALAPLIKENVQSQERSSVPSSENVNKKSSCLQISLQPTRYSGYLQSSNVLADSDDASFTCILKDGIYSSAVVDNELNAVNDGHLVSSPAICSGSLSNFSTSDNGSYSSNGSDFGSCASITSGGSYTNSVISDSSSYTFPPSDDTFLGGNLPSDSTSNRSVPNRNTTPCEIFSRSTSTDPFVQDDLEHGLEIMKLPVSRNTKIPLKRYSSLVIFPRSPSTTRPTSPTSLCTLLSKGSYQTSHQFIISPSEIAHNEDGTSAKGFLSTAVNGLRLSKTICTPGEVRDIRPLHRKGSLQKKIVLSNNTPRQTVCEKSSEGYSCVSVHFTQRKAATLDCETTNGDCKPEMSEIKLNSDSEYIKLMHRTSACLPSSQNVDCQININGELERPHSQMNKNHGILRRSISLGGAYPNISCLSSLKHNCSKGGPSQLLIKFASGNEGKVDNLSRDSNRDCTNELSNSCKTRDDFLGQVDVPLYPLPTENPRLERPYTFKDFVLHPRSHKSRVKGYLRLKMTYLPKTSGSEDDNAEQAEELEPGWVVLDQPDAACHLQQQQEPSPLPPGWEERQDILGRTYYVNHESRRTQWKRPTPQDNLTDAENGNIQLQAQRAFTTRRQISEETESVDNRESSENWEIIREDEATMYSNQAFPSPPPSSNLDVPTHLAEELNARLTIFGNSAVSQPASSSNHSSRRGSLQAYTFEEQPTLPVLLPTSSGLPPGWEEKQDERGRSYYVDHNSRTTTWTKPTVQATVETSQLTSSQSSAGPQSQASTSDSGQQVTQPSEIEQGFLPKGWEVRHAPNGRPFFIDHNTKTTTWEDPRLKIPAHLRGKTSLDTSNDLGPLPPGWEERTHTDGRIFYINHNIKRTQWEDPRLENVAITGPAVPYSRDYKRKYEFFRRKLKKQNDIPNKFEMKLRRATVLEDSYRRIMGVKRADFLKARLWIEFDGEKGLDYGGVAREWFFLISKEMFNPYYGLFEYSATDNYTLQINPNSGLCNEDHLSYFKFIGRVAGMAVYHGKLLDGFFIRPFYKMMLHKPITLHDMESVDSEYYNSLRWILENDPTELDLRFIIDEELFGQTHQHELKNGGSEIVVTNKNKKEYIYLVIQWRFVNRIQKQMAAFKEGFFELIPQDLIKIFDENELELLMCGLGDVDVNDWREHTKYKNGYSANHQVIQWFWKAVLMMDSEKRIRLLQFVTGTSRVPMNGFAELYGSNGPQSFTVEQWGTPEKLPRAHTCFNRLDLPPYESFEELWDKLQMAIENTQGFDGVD
Method: 1 pmole per experimental point of bacterially expressed GST-MDM2 (or GST-Nedd) was coupled to glutathione Sepharose (GS) for 30 minutes at room temperature with tumbling, followed by 3× wash with 50 mM Tris pH 7.5. Following this, 20 μl of 1× buffer was added (40 μl 10× reaction buffer*, 40 μl 10× PCK**, 320 μl dH2O). The test compound in DMSO is then added to the desired concentration with an equal volume of DMSO used as a control. Samples are incubated with shaking for 1 hr at 23° C. To carry out the reaction, a pre-made cocktail of Rabbit E1 (Calbiochem #6620700)/UbcH5B/^32P Ub cocktail (1 μl/0.5 μl/1 μl) is added followed by 15 minutes shaking at 30° C. The reaction is terminated by addition of 8 μl 4× reducing SDS-PAGE loading buffer. After dissociating proteins from the beads at 100° C. for 2 minutes, samples are resolved on 6% PAGE followed by exposure of the dried gel to phosphor screen. Note: ^32P Ub is derived from GST-Ub that has been engineered to include a PKA phosphorylation site. This fusion protein is purified on glutathione Sepharose, phosphorylated, following this, the ^32P Ub ubiquitin is cleaved and purified away from the thrombin.

T1 sequence (Q00987 whole entry): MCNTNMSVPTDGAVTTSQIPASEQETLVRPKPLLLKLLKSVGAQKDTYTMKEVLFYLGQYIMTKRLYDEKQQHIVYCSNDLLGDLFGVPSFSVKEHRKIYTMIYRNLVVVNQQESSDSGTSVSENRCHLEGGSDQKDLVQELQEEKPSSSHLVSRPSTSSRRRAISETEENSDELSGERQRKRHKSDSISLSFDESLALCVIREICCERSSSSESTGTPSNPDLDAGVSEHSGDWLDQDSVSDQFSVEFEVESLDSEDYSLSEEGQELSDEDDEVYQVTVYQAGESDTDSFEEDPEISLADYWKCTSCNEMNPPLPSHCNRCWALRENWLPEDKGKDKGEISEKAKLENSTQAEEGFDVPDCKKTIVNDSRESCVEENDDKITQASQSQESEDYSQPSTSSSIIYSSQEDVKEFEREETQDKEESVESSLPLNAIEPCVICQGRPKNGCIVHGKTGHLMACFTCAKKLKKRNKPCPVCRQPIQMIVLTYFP
T1 sequence (P04637 whole entry partner): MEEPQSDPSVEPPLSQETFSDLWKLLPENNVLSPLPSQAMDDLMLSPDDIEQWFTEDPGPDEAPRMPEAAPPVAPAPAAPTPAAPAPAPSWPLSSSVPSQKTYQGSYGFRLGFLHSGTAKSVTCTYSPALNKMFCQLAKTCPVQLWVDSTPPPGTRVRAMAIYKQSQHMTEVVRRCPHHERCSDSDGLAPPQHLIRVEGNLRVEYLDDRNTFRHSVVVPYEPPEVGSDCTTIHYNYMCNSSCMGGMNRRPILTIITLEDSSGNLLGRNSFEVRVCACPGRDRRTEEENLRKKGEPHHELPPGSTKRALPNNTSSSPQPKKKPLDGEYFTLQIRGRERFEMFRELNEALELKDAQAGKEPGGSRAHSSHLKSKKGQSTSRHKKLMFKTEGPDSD

## O=c1nc2n(-c3cccc(Cl)c3)c3ccc([N+](=O)[O-])cc3cc-2c(=O)[nH]1 [Compound 98C07, 10-(-3-chloro-phenyl)-7-nitro-10H-pyrimido[4,5-b]quinoline-2,4-dione]
[1]
  inhibition of p53 ubiquitination by MDM2: significant dose-dependent inhibition of p53 ubiquitination
Nedd4
  selectivity of inhibition of MDM2 versus unrelated E3 ligase Nedd4: shows some selectivity as an inhibitor of MDM2; also recorded: specificity of MDM2
